Data as given in PubChem BioAssay (NCI).
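Tested at 5 concentrations; 48 h exposure; 96-well plates; endpoints linearly interpolated, else capped at highest concentration. Here, GI50 denotes the concentration required for 50% inhibition of growth. TGI: concentration producing complete growth inhibition.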

Key:
Assay in all cases: NCI anticancer screen, dose series, 48 h
[1] = test system: SF-539 CNS
[2] = test system: PC-3 prostate
[3] = test system: UO-31 renal
[4] = test system: HCT-116 colon
[5] = test system: 786-0 renal
[6] = test system: SF-295 CNS
[7] = test system: SR leukemia
[8] = test system: COLO 205 colon
[9] = test system: IGROV1 ovarian
[10] = test system: RPMI-8226 leukemia
[11] = test system: RXF 393 renal
[12] = test system: MDA-MB-231 breast
[13] = test system: HCT-15 colon
[14] = test system: NCI/ADR-RES ovarian
[15] = test system: UACC-257 melanoma
[16] = test system: TK-10 renal
[17] = test system: HOP-62 NSCLC
[18] = test system: CAKI-1 renal
[19] = test system: MDA-N
[20] = test system: SK-MEL-2 melanoma
[21] = test system: HOP-92 NSCLC
[22] = test system: HL-60(TB) leukemia
[23] = test system: BT-549 breast
[24] = test system: SK-OV-3 ovarian
[25] = test system: A498 renal
[26] = test system: NCI-H522 lung
[27] = test system: LOX IMVI melanoma
[28] = test system: SNB-19 CNS
[29] = test system: DU-145 prostate
[30] = test system: OVCAR-4 ovarian
[31] = test system: MOLT-4 leukemia
[32] = test system: OVCAR-8 ovarian
[33] = test system: MDA-MB-435
[34] = test system: MALME-3M melanoma
[35] = test system: M14 melanoma
[36] = test system: UACC-62 melanoma
[37] = test system: NCI-H226 lung
[38] = test system: HT29 colon
[39] = test system: T-47D breast
[40] = test system: SK-MEL-5 melanoma
[41] = test system: SK-MEL-28 melanoma
[42] = test system: A549 NSCLC
[43] = test system: HS 578T breast
[44] = test system: OVCAR-3 ovarian
[45] = test system: U251 CNS
[46] = test system: ACHN renal
[47] = test system: MCF7 breast
[48] = test system: EKVX NSCLC
[49] = test system: OVCAR-5 ovarian
[50] = test system: CCRF-CEM leukemia
[51] = test system: NCI-H23 lung
[52] = test system: SF-268 CNS
[53] = test system: SNB-75 CNS
[54] = test system: K-562 leukemia
[55] = test system: SN12C renal
[56] = test system: NCI-H460 lung
[57] = test system: HCC-2998 colon
[58] = test system: SW-620 colon
[59] = test system: KM12 colon

Structure (SMILES): COc1cc2c(cc1OC)[C@@](C)(C(O)C(O)C(C)(C)O)NCC2 (stereo not given in full)
- TGI [1]: > 100 µM
- TGI [2]: > 100 µM
- TGI [3]: > 100 µM
- TGI [4]: > 100 µM
- TGI [5]: > 100 µM
- TGI [6]: > 100 µM
- TGI [7]: > 100 µM
- TGI [8]: > 100 µM
- TGI [9]: > 100 µM
- TGI [10]: > 100 µM
- TGI [11]: > 100 µM
- TGI [12]: > 100 µM
- TGI [13]: > 100 µM
- TGI [14]: > 100 µM
- TGI [15]: > 100 µM
- TGI [16]: > 100 µM
- TGI [17]: > 100 µM
- TGI [18]: > 100 µM
- TGI [19]: > 100 µM
- TGI [20]: > 100 µM
- TGI [21]: > 100 µM
- TGI [22]: > 100 µM
- TGI [23]: > 100 µM
- TGI [24]: > 100 µM
- TGI [25]: > 100 µM
- TGI [26]: > 100 µM
- TGI [27]: > 100 µM
- TGI [28]: > 100 µM
- TGI [29]: > 100 µM
- TGI [30]: > 100 µM
- TGI [31]: > 100 µM
- TGI [32]: > 100 µM
- TGI [33]: > 100 µM
- TGI [34]: > 100 µM
- TGI [35]: > 100 µM
- TGI [36]: > 100 µM
- TGI [37]: > 100 µM
- TGI [38]: > 100 µM
- TGI [39]: > 100 µM
- TGI [40]: > 100 µM
- TGI [41]: > 100 µM
- TGI [42]: > 100 µM
- TGI [43]: > 100 µM
- TGI [44]: > 100 µM
- TGI [45]: > 100 µM
- TGI [46]: > 100 µM
- TGI [47]: > 100 µM
- TGI [48]: > 100 µM
- TGI [49]: > 100 µM
- TGI [50]: > 100 µM
- TGI [51]: > 100 µM
- TGI [52]: > 100 µM
- TGI [53]: > 100 µM
- TGI [54]: > 100 µM
- TGI [55]: > 100 µM

Structure (SMILES): CC(=O)OC(C)c1cc2c(s1)C(=O)c1c(C(C)OC(C)=O)csc1C2=O (stereo not given)
- TGI [56]: 1.58 µM
- TGI [1]: 2.36 µM
- TGI [57]: 3.1 µM
- TGI [58]: 2.37 µM
- TGI [2]: 6.6 µM
- TGI [3]: 2.9 µM
- TGI [4]: 10.2 µM
- TGI [5]: 4.93 µM
- TGI [6]: 2.59 µM
- TGI [7]: > 100 µM
- TGI [8]: 3.5 µM
- TGI [9]: 3.28 µM
- TGI [10]: 4.98 µM
- TGI [11]: 4.39 µM
- TGI [12]: 3.6 µM
- TGI [13]: 4.4 µM
- TGI [14]: 3.62 µM
- GI50 [15]: 0.631 µM
- TGI [15]: 1.89 µM
- TGI [16]: 5.69 µM
- TGI [17]: 2.5 µM
- GI50 [19]: 0.214 µM
- TGI [19]: 0.382 µM
- GI50 [20]: 1.56 µM
- TGI [20]: 3.56 µM
- TGI [21]: 5.55 µM
- GI50 [22]: 0.0682 µM
- TGI [22]: 2.15 µM
- GI50 [23]: 2.14 µM
- TGI [23]: 3.83 µM
- TGI [24]: 13.8 µM
- TGI [25]: 3.64 µM
- TGI [29]: 1.86 µM
- TGI [30]: 2.75 µM
- TGI [31]: 5.08 µM
- GI50 [32]: 0.452 µM
- TGI [32]: 2.05 µM
- GI50 [33]: 0.185 µM
- TGI [33]: 0.34 µM
- GI50 [34]: 0.186 µM
- TGI [34]: 0.412 µM
- GI50 [35]: 0.516 µM
- TGI [35]: 1.79 µM
- GI50 [36]: 1.09 µM
- TGI [36]: 2.51 µM
- TGI [37]: 3.62 µM
- TGI [38]: 4.35 µM
- TGI [39]: 5.52 µM
- GI50 [40]: 0.631 µM
- TGI [40]: 1.83 µM
- GI50 [41]: 1.65 µM
- TGI [41]: 3.27 µM
- TGI [42]: 4.52 µM
- GI50 [43]: 2.08 µM
- TGI [43]: 7.59 µM
- GI50 [44]: 0.278 µM
- TGI [44]: 0.724 µM
- TGI [45]: 2.7 µM
- TGI [46]: 2.82 µM
- TGI [47]: 3.09 µM
- TGI [48]: 3.22 µM
- TGI [49]: 3.41 µM
- TGI [50]: 4.44 µM
- GI50 [51]: 0.878 µM
- TGI [51]: 2.29 µM
- TGI [52]: 13.2 µM
- TGI [53]: 4.43 µM
- TGI [54]: 3.26 µM
- TGI [55]: 2.04 µM
- TGI [59]: 3.41 µM
